The test system of one data set is mushroom tyrosinase. The data set can be described thus: Tyrosinase activity inhibition (L-DOPA oxidation). It counts as biochemical. Particulars: pH 7.0, FIG. 8; for inhibitory effect on tyrosinase activity: 6.25 μM (equal concentration). How it is done: Samples were dissolved in an organic solvent such as ethanol, which were diluted in a proper buffer such as 100 mM phosphate buffer (pH 7.0). Those samples diluted at a proper concentration in order to inhibit the activity to DOPA oxidation reaction were used as the sample solutions for the experiment. 850 μL of 100 mM phosphate buffer (pH 7.0), 50 μL of the sample solution and 50 μL of mushroom tyrosinase (2000 U/ml) were loaded in a test tube in that order, followed by reaction at 37° C. for 5 minutes. 50 μL of 0.06 mM L-DOPA (L-3,4-dihydroxyphenylalanine) solution was added thereto, and then OD475 was measured using a microplate reader. After reacting the solution at 37° C. for 15 minutes, OD475 was measured again. DMSO was used as the control and Kojic acid was used for the positive control.
Tyrosinase activity inhibition rate (%)=[(A-B)/A]×100
A: difference of OD in the control group (OD after the reaction—OD before the reaction)
B: difference of OD in the experimental group (OD after the reaction—OD before the reaction)

Data set [1] deals with tyrosinase gene expression in B16F10 melanoma cells. Nature of the data set: Inhibition of tyrosinase gene expression (real-time PCR). It counts as cell-based. Particulars: α-MSH 10 nM, compound 2 μM, 72 hours, mRNA corrected to β-actin, FIG. 2. How it is done: (§1) B16F10 melanoma cells were distributed in a 6-well plate, to which α-MSH (10 nM) (melanin synthesis inducing substance, alpha-melanocyte-stimulating hormone) and the compounds of example and comparative examples 1˜4 were treated at the concentration of 2 μM each, followed by exposure-culture for 72 hours. Then, the cells were harvested and total RNA of the cells was extracted using RNeasy mini kit (Qiagen). CDNA was synthesized by using M-MLV reverse transcriptase, 5X first-strand butter, dNTP mix and oligo(dT) primer (Thermo Fisher Scientific). The cDNA product, the primers of each gene and LightCycler® MultiplexMasters (Roche) were mixed, followed by SYBR Green-based real-time PCR using LightCycler® NanoInstrument (Roche). To relatively evaluate the level of tyrosinase mRNA expression, the expression was corrected based on the level of β-actin mRNA expression. The PCR conditions for gene amplification are as follows.
Denaturation: 95° C., 10 seconds
Annealing: melting point of each primer, 10 seconds
Extension/Detection: 72° C., 20 seconds
Total cycle number: 45 cycles
Information on the primers used for the amplification of tyrosinase gene expression and information on the primers for β-actin used as a correction gene are as follows.
Background: Quantitative PCR measures a nucleic acid by following its amplification.

In data set [2] the test system is melanin synthesis in B16F10 melanoma cells. The data set can be described thus: Melanin synthesis inhibition. The class given is cell-based. Particulars: α-MSH 10 nM, 72 hours. As to the method: B16F10 melanoma cells were distributed in a 96-well plate at the density of 3×10^5 cells/well. The cells were cultured in DMEM supplemented with 10% FBS at 37° C. in 5% CO2 for 24 hours. […] The cells were harvested, followed by dissolving in 1 N NaOH by heating at 80° C. for 20 minutes. Then, OD490 was measured. The melanin synthesis inhibition rate was calculated as follows.
Melanin inhibition rate (%)=[(C−S)/C]×100
C: OD when α-MSH alone was treated.
S: OD when each sample was treated.

The nature of data set [3]: Antioxidative effect, DPPH radical scavenging activity test. Conditions: 37° C., 30 minutes, FIG. 5. How it is done: The antioxidative effect was evaluated by 2,2-diphenyl-1-picrylhydrazyl (DPPH) radical scavenging activity test.
Dimethyl sulfoxide (DMSO), vitamin C and the compounds of example and comparative examples 1˜4 were added to a 96-well plate at each designated concentration, and 200 μL of 200 μM DPPH methanolic solution was added to each well. The plate was shaken gently to mix them all, followed by reaction at 37° C. for 30 minutes. Then, OD515 was measured. DMSO was used as the control for the measurement of antioxidative effect and vitamin C was used as the positive control for the measurement of antioxidative effect.

Data set [4] relates to TRP 1 (tyrosinase-related protein 1) gene expression in B16F10 melanoma cells. The data set can be described thus: Inhibition of TRP 1 gene expression (real-time PCR). Particulars: α-MSH 10 nM, compound 2 μM, 72 hours, FIG. 4a. It counts as cell-based. As to the method: as §1
(§2) Evaluation of TRP 1 and TRP 2 gene expression was performed by the same manner as described in the evaluation of tyrosinase gene expression. Information on the primers used for the amplification of TRP 1 and TRP 2 gene expression is as follows.

In a further data set the test system is B16F10 melanoma cells. The data set can be described thus: Cytotoxicity, MTT assay. Conditions: 48 hours; for cytotoxicity: at the concentration of 10 μM or more. It counts as cell-based. As to the method: B16F10 melanoma cells were distributed in a 96-well plate at the density of 2×10^3 cells/well. The cells were cultured in DMEM supplemented with 10% fetal bovine serum (FBS) at 37° C. in 5% CO2 for 24 hours. The cells were exposed on the compounds of example and comparative examples 1˜4 at the set concentration each for 48 hours. MTT assay was performed to evaluate cytotoxicity. To perform MTT assay, MTT solution was added to the cells, followed by reaction for 2 hours. Then, DMSO was added thereto to dissolve formazan crystals, followed by measurement of OD570.
In general terms: Tetrazolium dyes change colour on reduction, which living cells bring about.

The test system of data set [5] is TRP 2 (tyrosinase-related protein 2) gene expression in B16F10 melanoma cells. Nature of the data set: Inhibition of TRP 2 gene expression (real-time PCR). The class given is cell-based. Conditions: α-MSH 10 nM, compound 2 μM, 72 hours, FIG. 4b. How it is done: as §1, §2
In data set [6] the test system is MITF (microphthalmia-associated transcription factor) gene expression in B16F10 melanoma cells. The data set can be described thus: Inhibition of MITF gene expression (real-time PCR). It counts as cell-based. Particulars: α-MSH 10 nM, compound 2 μM, 72 hours, FIG. 3. As to the method:
as §1
Evaluation of MITF gene expression was performed by the same manner as described in the evaluation of tyrosinase gene expression in experimental example 1. Information on the primers used for the amplification of MITF gene expression is as follows.

SMILES strings stand for the structures.

`COc1ccc(/N=C/c2ccc(O)cc2O)cc1` [compound 2, (E)-4-((4-methoxyphenylimino)methyl)benzene-1,3-diol]: the “inhibitory effect on tyrosinase activity” value in the data set on mushroom tyrosinase is reported as “did not show inhibitory effect on tyrosinase activity”.

With `COc1cccc(/C=C/C=C/C=C/c2cccc(OC)c2OC)c1OC` [compound of example, (1E,3E,5E)-1,6-bis(2,3-dimethoxyphenyl)hexa-1,3,5-triene], the “inhibitory effect on tyrosinase gene expression (relative expression level)” value in data set [1] is “excellent in inhibiting tyrosinase gene expression”. Moreover, the “reduction of tyrosinase activity” value in the data set on mushroom tyrosinase (6.25 μM) is on record as “approximately 20%”. For the same compound, the “melanin content in the cells” value in data set [2] (versus comparative examples, FIG. 7) is recorded as “significantly lower”. Moreover, in data set [2] (compound 1 μM, versus comparative examples 1˜4, FIG. 7), the “melanin content in media and cells” value is “lower in both media and cells”. Further, the “antioxidative effect (DPPH radical scavenging activity)” value in data set [3] (40 μM, compared with comparative examples 1˜4) is “excellent antioxidative effect”; in data set [3] (about 25 μM, compared with comparative examples 1˜3), “excellent antioxidative effect”. Further, in data set [4], the “inhibitory effect on TRP 1 gene expression (relative expression level)” value was “excellent in inhibiting TRP1 and TRP2 gene expression”. In the data set on B16F10 melanoma cells (concentration increased from 5 μM to 15 μM, FIG. 6), the cell survival rate was no less than 80%. For the same compound, the “inhibitory effect on TRP 2 gene expression (relative expression level)” value in data set [5] was “excellent in inhibiting TRP1 and TRP2 gene expression”. Further, the “inhibitory effect on MITF gene expression (relative expression level)” value in data set [6] is given as “excellent in inhibiting MITF gene expression”.

Consider `COc1ccc(/C=C/C=C/C=C/c2ccc(OC)c(O)c2)cc1O` [compound 4, 5,5′-((1E,3E,5E)-hexa-1,3,5-triene-1,6-diyl)bis(2-methoxyphenol)], for which the cytotoxicity result in the data set on B16F10 melanoma cells is “strong cytotoxicity”.

As for `Oc1ccc(/C=C/C=C/C=C/c2ccc(O)cc2)cc1` [compound 3, 4,4′-((1E,3E,5E)-hexa-1,3,5-triene-1,6-diyl)diphenol], in the data set on mushroom tyrosinase, the “inhibitory effect on tyrosinase activity” value is recorded as “did not show inhibitory effect on tyrosinase activity”. The cytotoxicity result in the data set on B16F10 melanoma cells is given as “strong cytotoxicity”.

As to `COc1cc(/C=C/C=C/C=C/c2ccc(O)c(OC)c2)ccc1O` [comparative example 1, 4,4′-((1E,3E,5E)-hexa-1,3,5-triene-1,6-diyl)bis(2-methoxyphenol), reference compound], the “inhibitory effect on tyrosinase gene expression (relative expression level)” value in data set [1] is given as “hardly had inhibitory effect on the expression of tyrosinase gene”. In addition, the cytotoxicity result in the data set on B16F10 melanoma cells was “strong cytotoxicity”.

The values above are taken from patent US11166891B2, “Bis phenyl hexa trien derivatives, preparation method thereof, and composition for skin whitening containing the same as an active ingredient” (Korea Research Institute of Chemical Technology, priority 2018, dated 2021).
